Patent US5741819A, “Arylsulfonylaminobenzene derivatives and the use thereof as factor Xa inhibitors” (3-Dimensional Pharmaceuticals, Inc., priority 1995, dated 1998)
Where two headings read alike, the source gives them in different places.

What was measured:
Assay type in all cases: biochemical
Factor Xa = target: T1, Factor Xa (Homo sapiens, UniProt P00742); assay: In vitro inhibition of purified factor Xa (hydrolysis of Bz-Ile-Glu-Gly-Arg-pNa); details: purified enzyme, 10 nM factor Xa, 26 μM substrate, pH 7.5, 37° C.
T1 construct: purchased Enzyme Research Laboratories, Inc
Description: (§1) The ability of the compounds of the present invention to act as inhibitors of thrombin, factor Xa and plasmin catalytic activity was assessed by determining the concentration that inhibited enzyme activity by 50% using purified human enzymes. The concentration of added inhibitor that caused a 50% decrease in the initial rate of hydrolysis was defined as the IC50 value.
(§2) All assays are based on the ability of the test compound to inhibit the hydrolysis of a peptide p-nitroanilide substrate. In a typical experiment, appropriate substrate is prepared in DMSO, and diluted into an assay buffer consisting of 50 mM HEPES and 130 mM NaCl at a pH of 7.5. The final concentration for each of the substrates is listed below. All substrate concentrations are at least 10 fold lower than Km to insure inhibition is competitive. Test compounds are prepared as 1 mg/mL solutions in DMSO, and three additional 10-fold dilutions in DMSO are prepared. Enzyme solutions are prepared at the concentrations listed below in assay buffer.
(§3) In a typical IC50 determination, into each well of a 96 well plate is pipetted 280 μL of substrate solution, 10 μL of inhibitor solution, and the plate is allowed to thermally equilibrate at 37° C. in a Molecular Devices Plate Reader for at least 10 minutes. Reactions are initiated by the addition of a 20 μL aliquot of enzyme, and the absorbance increase at 405 nm is recorded for 15 minutes. Data corresponding to less than 10% of the total substrate hydrolysis is used in the calculations. The ratio of the velocity (rate of the change in absorbance as a function of time) for a sample containing no inhibitor is divided by the velocity of a sample containing inhibitor, and is plotted as a function of inhibitor concentration. The inverse of the slope is the concentration of inhibitor which produces a 50% decrease in activity of the enzyme. This concentration is referred to as the IC50.
Factor Xa activity was assessed as the ability to hydrolyze the substrate Bz-Ile-Glu-Gly-Arg-pNa, and was obtained from Sigma. Substrate solutions were prepared at a concentration of 26 μM (26 μM<<Km =1.3 mM) in assay buffer. Final DMSO concentration was 0.3%. Activated factor Xa was obtained from Enzyme Research Laboratories, Inc., and was diluted into assay buffer to a concentration of 1.2 μM. Final reagent concentrations were: [Factor Xa]=10 nM, [Bz-Ile-Glu-Gly-Arg-pNa]=26 μM, [inhibitor]=60to 0.06 μM.

human α-thrombin = human α-thrombin (Homo sapiens, UniProt P00734); assay: In vitro inhibition of purified thrombin (hydrolysis of Bz-Phe-Val-Arg-pNa); details: for IC50: purified human α-thrombin 36 nM, pH 7.5, 37° C.; for inhibition at 60 µM: at 60 μM inhibitor
Description: as §1, §2, §3
Thrombin activity was assessed as the ability to hydrolyze the substrate N-benzoyl-Phe-Val-Arg-p-nitroanilide (Bz-Phe-Val-Arg-pNa), and was obtained from Sigma Chemical Company (St. Louis, Mo.). Substrate solutions were prepared at a concentration of 60 μM (60 μM<<Km =1.2 mM) in assay buffer. Final DMSO concentration was 0.3%. […] Final reagent concentrations were: [thrombin]=36 nM, [Bz-Phe-Val-Arg-pNa]=[…], [inhibitor]=60 to 0.06 μM.

human plasmin = human plasmin (Homo sapiens, UniProt P00747); assay: In vitro inhibition of purified plasmin (hydrolysis of Tos-Gly-Pro-Lys-pNa); details: for inhibition at 60 µM: at 60 μM inhibitor
Description: as §1, §2, §3
Plasmin activity was assessed as the ability to hydrolyze the substrate Tos-Gly-Pro-Lys-pNa, and was obtained from Sigma. Substrate solutions were prepared at a concentration of 22 μM (22 μM<<Km =240 μM) in assay buffer. Final DMSO concentration was 0.3%. Purified human plasmin was obtained from Enzyme Research Laboratories Inc, and was diluted into assay buffer to a concentration of 1.2 μM. Final reagent concentrations were: [plasmin]=15 nM, […], [inhibitor]=60 to 0.06 μM.

[1] = purified human plasmin 15 nM, pH 7.5, 37° C., read-out: Plasmin Inhibition (IC50)

Sequence of human plasmin (P00747 581-810 limits assumed): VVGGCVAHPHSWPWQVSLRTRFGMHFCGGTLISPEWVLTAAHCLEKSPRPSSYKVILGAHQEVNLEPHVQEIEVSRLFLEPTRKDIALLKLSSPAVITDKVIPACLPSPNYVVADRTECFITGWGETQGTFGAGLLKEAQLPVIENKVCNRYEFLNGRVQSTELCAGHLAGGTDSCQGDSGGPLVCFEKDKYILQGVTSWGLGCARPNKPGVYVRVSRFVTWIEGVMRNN
Sequence of human plasmin (P00747 97-580 partner limits assumed): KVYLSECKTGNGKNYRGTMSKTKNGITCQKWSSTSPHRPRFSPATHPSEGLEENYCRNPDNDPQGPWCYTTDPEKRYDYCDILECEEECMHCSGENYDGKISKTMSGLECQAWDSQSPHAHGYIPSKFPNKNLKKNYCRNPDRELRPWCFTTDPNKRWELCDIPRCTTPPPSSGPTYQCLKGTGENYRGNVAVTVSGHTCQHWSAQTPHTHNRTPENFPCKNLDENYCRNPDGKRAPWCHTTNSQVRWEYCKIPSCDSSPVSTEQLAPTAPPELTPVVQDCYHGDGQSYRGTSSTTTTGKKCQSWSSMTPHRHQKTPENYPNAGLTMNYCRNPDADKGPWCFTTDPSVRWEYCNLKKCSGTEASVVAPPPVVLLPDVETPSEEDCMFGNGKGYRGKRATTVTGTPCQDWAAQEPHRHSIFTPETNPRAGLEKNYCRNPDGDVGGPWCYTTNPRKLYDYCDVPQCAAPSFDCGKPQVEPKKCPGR
T1 sequence (P00742 235-488 limits assumed): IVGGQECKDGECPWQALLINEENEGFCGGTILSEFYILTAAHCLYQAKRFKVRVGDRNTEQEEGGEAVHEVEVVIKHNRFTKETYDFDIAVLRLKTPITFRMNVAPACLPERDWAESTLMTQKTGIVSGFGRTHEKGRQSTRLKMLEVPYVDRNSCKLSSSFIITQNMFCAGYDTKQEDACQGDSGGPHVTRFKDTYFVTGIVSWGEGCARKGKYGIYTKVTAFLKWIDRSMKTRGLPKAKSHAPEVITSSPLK
T1 sequence (P00742 41-179 partner limits assumed): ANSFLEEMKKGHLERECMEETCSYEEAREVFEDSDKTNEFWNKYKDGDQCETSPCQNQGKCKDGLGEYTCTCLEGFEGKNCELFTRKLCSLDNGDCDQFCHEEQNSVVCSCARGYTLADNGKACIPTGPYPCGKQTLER

Compound | IC50 (Factor Xa) [µM] | IC50 (human α-thrombin) [µM] | IC50 (human plasmin) [µM] | inhibition at 60 µM (human plasmin) [%] | inhibition at 60 µM (human α-thrombin) [%] | IC50 (human plasmin; [1]) [µM]
O=C(NCC(O)c1cccc(O)c1)c1cccc(NS(=O)(=O)c2ccc3ccccc3c2)c1 (stereo not drawn) [Compound 14, 3-[(2-Naphthalenylsulfonyl)amino]-N-[2-hydroxy-2-(3'-hydroxyphenyl)ethyl]benzamide] | 11.4 | 87 | 86.1 | – | – | –
CN(C)c1ccc(CNC(=O)c2cccc(NS(=O)(=O)c3ccc4ccccc4c3)c2)cc1 [Compound 16] | 3.2 | 52.8 | – | 0 | – | –
O=C(NCCc1ccccn1)c1cccc(NS(=O)(=O)c2ccc3ccccc3c2)c1 [Compound 27] | 2 | 294 | – | 0 | – | –
CN(C)c1ccc(CNC(=O)c2cccc(NS(=O)(=O)c3cccc(N)c3)c2)cc1 [Compound 31, 3-[(3'-Aminophenylsulfonyl)amino]-N-[4'-[(N', N'-dimethylamino)phenyl]methyl]benzamide] | 16.5 | – | – | – | 0 | 15.2
NCCCCCNC(=O)c1cccc(NS(=O)(=O)c2ccc3ccccc3c2)c1 [Compound 32, 3-[(2-Naphthalenylsulfonyl)amino]-N-(5-aminopentyl)benzamide] | 7.6 | – | – | 0 | 0 | –

More lines, now with the values ahead:

IC50 (Factor Xa) [µM] | IC50 (human α-thrombin) [µM] | IC50 (human plasmin) [µM] | inhibition at 60 µM (human plasmin) [%] | inhibition at 60 µM (human α-thrombin) [%] | IC50 (human plasmin; [1]) [µM] | Compound
19.2 | – | – | – | 0 | 5.8 | COc1cc(CNC(=O)c2cccc(NS(=O)(=O)c3ccccc3)c2)ccc1O [Compound 20, 3-[(Phenylsulfonyl)amino]-N-[(4-hydroxy-3-methoxyphenyl)methyl]benzamide]
20.8 | 38.3 | – | 0 | – | – | COc1cc(C(O)CNC(=O)c2cccc(NS(=O)(=O)c3ccccc3)c2)ccc1O (stereo not drawn) [Compound 22, 3-[(Phenylsulfonyl)amino]-N-[2-hydroxy-2-(4'-hydroxy-3'-methoxyphenyl)ethyl]benzamide]
